Test in all cases: NCI anticancer screen, dose series, 48 h
Assay [1] has as its system HOP-62 NSCLC.
Assay [2] relates to OVCAR-4 ovarian.
Assay [3] has as its system PC-3 prostate.
Assay [4] has as its system SK-MEL-5 melanoma.
Assay [5] has as its system UACC-257 melanoma.
Assay [6] deals with A498 renal.
Assay [7] has as its system UO-31 renal.
Assay [8] concerns K-562 leukemia.
The subject of assay [9] is KM12 colon.
Assay [10] relates to SNB-75 CNS.

“And” between values parts separate entries of the source, which are not always exact repeats. Equal values may be shown once.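 Dose response: 5 concentrations. Exposure: 48 h. Format: 96-well plates. Endpoint: linear interpolation; highest concentration if not reached. GI50: concentration for 50% inhibition of growth. TGI: concentration producing complete growth inhibition.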 A value given as a limit tells only on which side of the number the result lay.

As for `COc1ccccc1N1C(=O)/C(=C\c2ccccc2)SC1c1cc(OC)c(OC)c(OC)c1` (stereo not drawn), the TGI in [1] was > 100 µM; in assay [2] it was > 100 µM; in [3], 68.9 µM; in assay [4] it was > 100 µM; in assay [5], > 100 µM; in assay [6], > 100 µM. Moreover, the TGI in [7], in assay [8] and in [9] was > 100 µM throughout.

Consider `O=[N+]([O-])c1ccc(N/N=C\c2ccc(O)cc2O)nc1`, for which the GI50 in assay [1] is 4.34 µM; in assay [2], 1.11 µM; in assay [3], 5.73 µM; in assay [5], 3.37 µM; in [6], > 100 µM; in assay [9], 1.91 µM. The GI50 in [10] is 9.77 µM. The TGI in assay [1] was 45 µM; in assay [2], > 100 µM; in [3], > 100 µM; in assay [5] it was > 100 µM; in assay [6], > 100 µM; in assay [9], > 100 µM. Moreover, the TGI in assay [10] was > 100 µM.

On to `O=c1oc2ccc([N+](=O)[O-])cc2cc1-c1csc(-c2ccccc2)n1`, for which the TGI in assay [1], in assay [2], in [3], in assay [4], in [5] and in assay [7] was > 100 µM throughout. Also, the TGI in [8], in assay [9] and in [10] was > 100 µM in each case.

For `O=C(O)Cc1ccc(-n2nnc3c(=O)[nH][nH]c(=O)c32)cc1`, the TGI in [1], in assay [2], in [3], in assay [4], in assay [5] and in assay [7] was > 100 µM throughout. Moreover, the TGI in assay [8] and in assay [9] was > 100 µM each time.

Take `COC(=O)/C=C/[C@H]1[C@H](C)N1S(=O)(=O)c1ccc(C)cc1` (stereo partly drawn): the TGI in assay [1], in assay [2], in [3], in [4], in [5] and in [6] was > 100 µM in each case. Also, the TGI in assay [8] and in assay [9] was > 100 µM each time.

Regarding `COC1=C2C[C@](OC)(C#CC=CC#CC2O)CC1(C)C` (stereo partly drawn), the TGI was > 100 µM in assay [1]; > 100 µM in [3]; > 100 µM in [4]; > 100 µM in assay [5]; 80.3 µM in assay [7]; > 100 µM in assay [8]. Further, the TGI in assay [9] and in assay [10] was > 100 µM in each case.

On to `CN(C)CCNc1nc2c(c(=O)n(C)c(=O)n2C)n1C`, for which the TGI in assay [1], in [2], in assay [4], in assay [5], in assay [6] and in assay [7] was > 100 µM in each case. For the same molecule, the TGI in assay [8] and in assay [9] was > 100 µM throughout.

`COC(=O)/C=C/c1cc(OC)c2c(c1)C(C(=O)OC)C(c1ccc(O)c(OC)c1)O2` (stereo not drawn): the GI50 in [1] was 12 µM and 5.12 µM and 7.2 µM; in assay [2], 7.9 µM and 7.77 µM and 18 µM; in assay [5], > 25.9 µM and 6.49 µM; in assay [8], 1.51 µM and 1.11 µM and 0.579 µM; in assay [10], 0.91 µM. In addition, the TGI in assay [1] is > 100 µM; in assay [2], > 100 µM; in assay [3], > 100 µM; in assay [5] it was > 100 µM and 63.2 µM; in assay [6], > 65.4 µM and > 100 µM and 77.3 µM; in [7], > 43.7 µM and 45.1 µM and 77.2 µM. Further, the TGI in assay [8] was > 50.3 µM; in assay [9] it was > 88.2 µM and 20.9 µM and 15.7 µM; in assay [10] it was 4.36 µM and 6.67 µM and 15.2 µM.

Turning to `ClC1(Cl)C2CCOC21n1cnc2ccccc21` (stereo not drawn), the TGI in [1], in assay [2], in assay [3], in assay [4], in [7] and in [8] was > 100 µM throughout. Moreover, the TGI in assay [9] and in [10] was > 100 µM each time.

With `FC(F)(F)c1ccc(N=NN2CCCC2)cc1`, the TGI in [1], in assay [2], in assay [3], in assay [4], in assay [5] and in assay [6] was > 100 µM in each case. The results for the TGI in [7], in assay [8] and in assay [9] were > 100 µM, > 100 µM and 65.2 µM, respectively.

For the molecule `CC1(C)CC(=O)C(/C=N/c2nc(-c3cccc([N+](=O)[O-])c3)cs2)=C(O)C1`, the TGI was 57.9 µM in assay [1]; > 100 µM in [2]; > 100 µM in [3]; 49.7 µM in [5]; 30.5 µM in assay [6]; 74.9 µM in assay [7]. Further, the TGI in assay [8] is 52.6 µM; in assay [9], > 100 µM; in [10], 59.9 µM.

Consider `C[C@H](N)C(=O)Nc1ccc(-c2nc3ccccc3s2)cc1Cl`, for which the TGI in [1] worked out at 26 µM; in assay [3], 27.3 µM; in [4], 29.9 µM; in assay [5], 34.4 µM; in [7] it was 22.9 µM; in assay [8], 36.8 µM. For the same molecule, the TGI in assay [9] is 33.6 µM; in assay [10], 34.8 µM.

`NC(=O)NC(=O)c1cccc(C(=O)NC(N)=O)n1`: the TGI in assay [1], in assay [2], in assay [3], in [4], in assay [5] and in assay [6] was > 100 µM in each case. Besides, the TGI in [7], in assay [8] and in assay [9] was > 100 µM throughout.

Consider `Cc1cn(C2CC(/[N+]([O-])=N\Nc3ccc([N+](=O)[O-])cc3)C(CO)O2)c(=O)[nH]c1=O` (stereo not drawn), for which the TGI in [1], in assay [3], in assay [5], in assay [6], in [7] and in [8] was > 100 µM in each case. Further, the TGI in [9] was > 100 µM.

The values above are taken from PubChem BioAssay (NCI).
